Test results from patent publication EP0998480B1, “NUCLEOTIDE ANALOG COMPOSITION AND SYNTHESIS METHOD” (GILEAD SCIENCES, INC., priority 1997, dated 1999).

Columns and labels:
[1] = solid state chemical stability on storage at elevated temperature and relative humidity; assay type: physicochemical; conditions: for BPPF% / mono(POC) PMPA fumarate%: 75% relative humidity, 0 days; for mono(POC) PMPA fumarate%: degradation product in stored BPPF
Description: The solid state chemical stability of cBPPF and bis(POC)PMPA•citrate salt was compared by analyzing each compound after storage under different conditions.

[2] = human, in vivo
[3] = hygroscopicity at 92% relative humidity; assay type: physicochemical; conditions: crystals kept at 92% relative humidity and room temperature for up to 37 days

## 9-[2-(R)-[[Bis[[(isopropoxycarbonyl)oxy]methoxy]phosphinoyl]methoxy]propyl]adenine• fumaric acid [BPPF]
[1]; 40°C
  BPPF%: 99.0%
  mono(POC) PMPA fumarate%: 1.0%
[1]; 60°C
  BPPF%: 99.0%
  mono(POC) PMPA fumarate%: 1.0%
[1]; powder, storage at elevated temperature and relative humidity
  solid state chemical stability compared with bis(POC)PMPA citrate salt: more stable
[2]
  oral bioavailability: 30-40%
[3]
  hygroscopicity: not hygroscopic
